Key:
Assay in all cases: radiometric filter-binding kinase assay
[1] = test system: AKT1 (human), P31749 [S473D]; settings: compound 1.0 µM
[2] = test system: AKT2 (human), P31751 [S474D]; settings: compound 1.0 µM
AURKB (human) = AURKB (human) (UniProt Q96GD4); settings: compound 1.0 µM
BRSK2 (human) = BRSK2 (human) (UniProt Q8IWQ3); settings: compound 1.0 µM
CAMKK2 (human) = CAMKK2 (human) (UniProt Q96RR4); settings: compound 1.0 µM
CDK2 CCNA2 (human) = CDK2 CCNA2 (human) (UniProt P20248+P24941); settings: compound 1.0 µM
CHEK2 (human) = CHEK2 (human) (UniProt O96017); settings: compound 1.0 µM
CaMK1 (human) = CaMK1 (human) (UniProt Q14012); settings: compound 1.0 µM
DYRK3 (human) = DYRK3 (human) (UniProt O43781); settings: compound 1.0 µM
EPHA2 (human) = EPHA2 (human) (UniProt P29317); settings: compound 1.0 µM
FGFR1 (human) = FGFR1 (human) (UniProt P11362); settings: compound 1.0 µM
GSK3B (human) = GSK3B (human) (UniProt P49841); settings: compound 1.0 µM
IKBKE (human) = IKBKE (human) (UniProt Q14164); settings: compound 1.0 µM
LCK (mouse) = settings: compound 1.0 µM; accession and sequence are those of the human protein
MAPK11 (human) = MAPK11 (human) (UniProt Q15759); settings: compound 1.0 µM
MAPK12 (human) = MAPK12 (human) (UniProt P53778); settings: compound 1.0 µM
MAPK14 (human) = MAPK14 (human) (UniProt Q16539); settings: compound 1.0 µM
MAPK8 (human) = MAPK8 (human) (UniProt P45983); settings: compound 1.0 µM
MAPKAPK5 (human) = MAPKAPK5 (human) (UniProt Q8IW41); settings: compound 1.0 µM
MELK (human) = MELK (human) (UniProt Q14680); settings: compound 1.0 µM
MYLK (human) = MYLK (human) (UniProt Q15746); settings: compound 1.0 µM
NEK2 (human) = NEK2 (human) (UniProt P51955); settings: compound 1.0 µM
NEK6 (human) = NEK6 (human) (UniProt Q9HC98); settings: compound 1.0 µM
PAK6 (human) = PAK6 (human) (UniProt Q9NQU5); settings: compound 1.0 µM
PHKG1 (human) = PHKG1 (human) (UniProt Q16816); settings: compound 1.0 µM
PIM1 (human) = PIM1 (human) (UniProt P11309); settings: compound 1.0 µM
PIM2 (human) = PIM2 (human) (UniProt Q9P1W9); settings: compound 1.0 µM
PIM3 (human) = PIM3 (human) (UniProt Q86V86); settings: compound 1.0 µM
PLK1 (human) = PLK1 (human) (UniProt P53350); settings: compound 1.0 µM
[3] = target: PRKAA1 PRKAB2 PRKAG1 (human) (UniProt O43741+Q13131+P54619); settings: compound 1.0 µM
PRKACA (human) = PRKACA (human) (UniProt P17612); settings: compound 1.0 µM
PRKCA (human) = PRKCA (human) (UniProt P17252); settings: compound 1.0 µM
PRKCZ (human) = PRKCZ (human) (UniProt Q05513); settings: compound 1.0 µM
RPS6KA1 KD1 KD2 (human) = RPS6KA1 KD1 KD2 (human) (UniProt Q15418); settings: compound 1.0 µM
RPS6KA3 KD1 KD2 (human) = RPS6KA3 KD1 KD2 (human) (UniProt P51812); settings: compound 1.0 µM
SRC (human) = SRC (human) (UniProt P12931); settings: compound 1.0 µM
STK3 (human) = STK3 (human) (UniProt Q13188); settings: compound 1.0 µM
SYK (human) = SYK (human) (UniProt P43405); settings: compound 1.0 µM
TBK1 (human) = TBK1 (human) (UniProt Q9UHD2); settings: compound 1.0 µM
YES1 (human) = YES1 (human) (UniProt P07947); settings: compound 1.0 µM

Chain of AURKB (human) (Q96GD4 whole entry, looked up): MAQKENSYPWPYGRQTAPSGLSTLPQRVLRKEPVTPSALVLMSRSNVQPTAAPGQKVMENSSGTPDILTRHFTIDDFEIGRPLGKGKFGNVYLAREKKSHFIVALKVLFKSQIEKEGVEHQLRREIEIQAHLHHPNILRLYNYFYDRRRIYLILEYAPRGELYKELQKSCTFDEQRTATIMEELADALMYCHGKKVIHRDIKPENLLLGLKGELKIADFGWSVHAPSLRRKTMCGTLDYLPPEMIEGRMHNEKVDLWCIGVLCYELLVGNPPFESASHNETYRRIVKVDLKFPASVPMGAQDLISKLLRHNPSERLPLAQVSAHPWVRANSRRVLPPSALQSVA
Chain of PIM2 (human) (Q9P1W9 whole entry, looked up): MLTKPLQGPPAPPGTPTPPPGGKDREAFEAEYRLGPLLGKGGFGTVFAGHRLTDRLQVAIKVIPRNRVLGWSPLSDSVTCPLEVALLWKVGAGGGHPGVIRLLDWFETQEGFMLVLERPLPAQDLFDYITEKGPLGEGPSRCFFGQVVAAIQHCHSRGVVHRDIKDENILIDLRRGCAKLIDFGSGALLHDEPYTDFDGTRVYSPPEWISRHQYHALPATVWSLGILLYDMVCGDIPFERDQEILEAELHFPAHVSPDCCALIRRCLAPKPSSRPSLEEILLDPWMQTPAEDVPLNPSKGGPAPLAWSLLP
Chain of STK3 (human) (Q13188 whole entry, looked up): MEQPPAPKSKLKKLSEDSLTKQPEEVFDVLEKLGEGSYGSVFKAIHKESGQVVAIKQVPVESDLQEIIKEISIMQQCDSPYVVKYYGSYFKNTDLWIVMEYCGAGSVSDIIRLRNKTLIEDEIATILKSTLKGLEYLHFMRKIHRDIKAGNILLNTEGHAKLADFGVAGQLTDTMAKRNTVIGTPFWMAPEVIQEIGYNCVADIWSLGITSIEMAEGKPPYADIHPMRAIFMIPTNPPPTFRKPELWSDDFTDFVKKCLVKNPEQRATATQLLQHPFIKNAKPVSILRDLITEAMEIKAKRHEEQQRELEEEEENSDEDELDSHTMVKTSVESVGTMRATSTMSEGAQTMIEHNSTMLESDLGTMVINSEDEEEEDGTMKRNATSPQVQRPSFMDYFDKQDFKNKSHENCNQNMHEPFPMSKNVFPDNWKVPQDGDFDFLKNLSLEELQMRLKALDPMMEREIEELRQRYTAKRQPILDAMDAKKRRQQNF
Chain of CAMKK2 (human) (Q96RR4 whole entry, looked up): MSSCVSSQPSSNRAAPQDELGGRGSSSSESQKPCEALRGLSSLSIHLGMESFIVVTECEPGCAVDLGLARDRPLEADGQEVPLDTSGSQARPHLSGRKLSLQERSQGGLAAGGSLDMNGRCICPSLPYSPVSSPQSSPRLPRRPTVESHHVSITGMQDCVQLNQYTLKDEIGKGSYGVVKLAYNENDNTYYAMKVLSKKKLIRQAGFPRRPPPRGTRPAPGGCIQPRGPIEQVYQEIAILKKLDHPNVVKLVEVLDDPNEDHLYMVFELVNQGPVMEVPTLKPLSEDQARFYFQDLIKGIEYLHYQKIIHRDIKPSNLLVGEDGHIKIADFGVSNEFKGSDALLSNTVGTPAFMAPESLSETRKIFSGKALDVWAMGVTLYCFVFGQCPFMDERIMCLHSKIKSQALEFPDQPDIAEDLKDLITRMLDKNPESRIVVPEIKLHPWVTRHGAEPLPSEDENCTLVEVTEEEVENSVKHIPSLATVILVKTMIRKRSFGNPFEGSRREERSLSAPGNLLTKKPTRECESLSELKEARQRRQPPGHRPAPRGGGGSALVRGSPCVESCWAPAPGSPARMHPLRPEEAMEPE
Chain of PRKAA1 PRKAB2 PRKAG1 (human) (O43741 whole entry, looked up): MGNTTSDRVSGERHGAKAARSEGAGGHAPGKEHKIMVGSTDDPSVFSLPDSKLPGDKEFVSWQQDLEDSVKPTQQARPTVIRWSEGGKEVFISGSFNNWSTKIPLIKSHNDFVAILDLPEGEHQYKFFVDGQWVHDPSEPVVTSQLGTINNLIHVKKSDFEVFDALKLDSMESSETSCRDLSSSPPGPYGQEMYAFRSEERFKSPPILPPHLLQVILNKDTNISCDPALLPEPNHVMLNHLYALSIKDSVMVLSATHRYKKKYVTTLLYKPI
Chain of PRKAA1 PRKAB2 PRKAG1 (human) (P54619 whole entry, looked up): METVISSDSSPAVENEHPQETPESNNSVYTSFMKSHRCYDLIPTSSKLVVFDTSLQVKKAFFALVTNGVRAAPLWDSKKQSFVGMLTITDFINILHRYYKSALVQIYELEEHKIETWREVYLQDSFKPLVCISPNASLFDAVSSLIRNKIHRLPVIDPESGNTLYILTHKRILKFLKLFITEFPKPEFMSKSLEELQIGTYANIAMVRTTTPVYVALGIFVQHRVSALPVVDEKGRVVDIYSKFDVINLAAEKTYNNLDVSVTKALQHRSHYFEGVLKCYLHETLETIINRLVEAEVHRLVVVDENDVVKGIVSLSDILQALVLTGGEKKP
Chain of PRKAA1 PRKAB2 PRKAG1 (human) (Q13131 whole entry, looked up): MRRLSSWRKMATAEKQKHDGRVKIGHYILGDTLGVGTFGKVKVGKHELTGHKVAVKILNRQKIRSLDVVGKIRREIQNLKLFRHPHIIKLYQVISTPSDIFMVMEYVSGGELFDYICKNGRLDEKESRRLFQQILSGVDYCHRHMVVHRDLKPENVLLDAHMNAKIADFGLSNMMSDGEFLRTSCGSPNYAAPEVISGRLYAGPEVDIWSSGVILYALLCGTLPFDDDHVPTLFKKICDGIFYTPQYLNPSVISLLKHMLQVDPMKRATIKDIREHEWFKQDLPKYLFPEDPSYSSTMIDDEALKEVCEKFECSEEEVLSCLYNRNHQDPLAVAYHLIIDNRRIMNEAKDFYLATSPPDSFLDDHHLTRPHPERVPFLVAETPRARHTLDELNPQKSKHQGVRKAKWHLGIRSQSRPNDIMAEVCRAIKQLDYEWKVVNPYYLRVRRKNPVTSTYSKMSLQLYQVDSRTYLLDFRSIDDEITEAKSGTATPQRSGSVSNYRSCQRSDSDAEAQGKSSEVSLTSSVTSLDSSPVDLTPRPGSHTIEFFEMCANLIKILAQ
Chain of PLK1 (human) (P53350 whole entry, looked up): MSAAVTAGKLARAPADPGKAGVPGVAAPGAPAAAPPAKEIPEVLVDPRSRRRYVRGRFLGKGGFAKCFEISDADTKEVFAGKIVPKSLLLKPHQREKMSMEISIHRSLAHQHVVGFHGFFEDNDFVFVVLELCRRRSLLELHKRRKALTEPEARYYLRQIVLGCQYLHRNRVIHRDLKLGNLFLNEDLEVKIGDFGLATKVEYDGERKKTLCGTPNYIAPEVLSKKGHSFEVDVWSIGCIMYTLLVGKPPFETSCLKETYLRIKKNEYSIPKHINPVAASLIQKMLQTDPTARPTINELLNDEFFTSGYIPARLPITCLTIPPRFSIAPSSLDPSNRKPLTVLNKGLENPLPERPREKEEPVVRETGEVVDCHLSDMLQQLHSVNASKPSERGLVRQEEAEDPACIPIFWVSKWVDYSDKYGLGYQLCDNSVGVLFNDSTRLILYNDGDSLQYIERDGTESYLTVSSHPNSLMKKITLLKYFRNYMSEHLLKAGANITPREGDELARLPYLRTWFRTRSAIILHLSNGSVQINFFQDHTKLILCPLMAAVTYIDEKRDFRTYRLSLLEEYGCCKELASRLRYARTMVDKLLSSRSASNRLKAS
Chain of CHEK2 (human) (O96017 whole entry, looked up): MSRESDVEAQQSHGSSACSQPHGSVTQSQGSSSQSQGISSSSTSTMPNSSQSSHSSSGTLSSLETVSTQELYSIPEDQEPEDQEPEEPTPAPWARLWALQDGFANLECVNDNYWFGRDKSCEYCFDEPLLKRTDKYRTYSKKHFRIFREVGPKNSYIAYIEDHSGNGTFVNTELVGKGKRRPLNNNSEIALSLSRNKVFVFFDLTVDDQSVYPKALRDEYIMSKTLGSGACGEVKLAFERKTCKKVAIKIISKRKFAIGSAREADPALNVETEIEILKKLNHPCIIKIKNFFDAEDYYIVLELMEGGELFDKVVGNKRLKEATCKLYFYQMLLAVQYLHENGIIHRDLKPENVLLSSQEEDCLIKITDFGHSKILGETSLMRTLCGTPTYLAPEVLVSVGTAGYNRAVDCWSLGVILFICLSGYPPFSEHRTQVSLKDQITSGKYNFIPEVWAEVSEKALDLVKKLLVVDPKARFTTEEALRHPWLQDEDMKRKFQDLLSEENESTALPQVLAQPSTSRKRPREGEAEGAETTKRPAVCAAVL

SMILES | residual activity [1] | residual activity [2] | residual activity (AURKB (human)) | residual activity (BRSK2 (human)) | residual activity (CAMKK2 (human)) | residual activity (CDK2 CCNA2 (human)) | residual activity (CHEK2 (human)) | residual activity (CaMK1 (human)) | residual activity (DYRK3 (human)) | residual activity (EPHA2 (human)) | residual activity (FGFR1 (human)) | residual activity (GSK3B (human)) | residual activity (IKBKE (human)) | residual activity (LCK (mouse)) | residual activity (MAPK11 (human)) | residual activity (MAPK12 (human)) | residual activity (MAPK14 (human)) | residual activity (MAPK8 (human)) | residual activity (MAPKAPK5 (human)) | residual activity (MELK (human)) | further results
COc1ccc2c(c1)[nH]c1c(C)nccc12 | 100% | 84% | 94% | 107% | 97% | 80% | 95% | 88% | 31% | 87% | 103% | 87% | 83% | 88% | 92% | 67% | 77% | 70% | 97% | 93% | residual activity (MYLK (human)): 106%; residual activity (NEK2 (human)): 115%; residual activity (NEK6 (human)): 88%; residual activity (PAK6 (human)): 107%; residual activity (PHKG1 (human)): 84%; residual activity (PIM1 (human)): 74%; residual activity (PIM2 (human)): 101%; residual activity (PIM3 (human)): 74%; residual activity (PLK1 (human)): 96%; residual activity [3]: 106%; residual activity (PRKACA (human)): 104%; residual activity (PRKCA (human)): 94%; residual activity (PRKCZ (human)): 77%; residual activity (RPS6KA1 KD1 KD2 (human)): 93%; residual activity (RPS6KA3 KD1 KD2 (human)): 78%; residual activity (SRC (human)): 109%; residual activity (STK3 (human)): 81%; residual activity (SYK (human)): 93%; residual activity (TBK1 (human)): 87%; residual activity (YES1 (human)): 100%
Oc1ccc2c(c1)oc1c3ccccc3c(O)cc21 | 90% | 61% | 81% | 66% | 76% | 51% | 79% | 72% | 17% | 84% | 77% | 77% | 81% | 92% | 87% | 82% | 83% | 81% | 95% | 20% | residual activity (MYLK (human)): 46%; residual activity (NEK2 (human)): 98%; residual activity (NEK6 (human)): 77%; residual activity (PAK6 (human)): 121%; residual activity (PHKG1 (human)): 45%; residual activity (PIM1 (human)): 10%; residual activity (PIM2 (human)): 40%; residual activity (PIM3 (human)): 17%; residual activity (PLK1 (human)): 104%; residual activity [3]: 91%; residual activity (PRKACA (human)): 101%; residual activity (PRKCA (human)): 101%; residual activity (PRKCZ (human)): 70%; residual activity (RPS6KA1 KD1 KD2 (human)): 83%; residual activity (RPS6KA3 KD1 KD2 (human)): 40%; residual activity (SRC (human)): 85%; residual activity (STK3 (human)): 64%; residual activity (SYK (human)): 84%; residual activity (TBK1 (human)): 80%; residual activity (YES1 (human)): 95%

Source: the kinase profiling compilation of Christmann-Franck et al. (2016)
